The values below are quoted from earlier work in patent US6358910B1, “Detergent compositions” (Lever Brothers Company, divison of Conopco, Inc., priority 1997, dated 2002).

The conditions of this series: grams of solid to form a saturated solution in 100 grams of water at 20° C.

SMILES strings stand for the structures.

Consider `O=P(O)(O)OP(=O)(O)OP(=O)(O)O` [Sodium tripolyphosphate anhydrous], for which the “Water Solubility (g/100 g)” value is 15 g/100 g.
For `O=BO[O-].[Na+]` [Sodium perborate anhydrous], the “Water Solubility (g/100 g)” value is listed as 3.7 g/100 g.
Turning to `NC(N)=O` [Urea], the “Water Solubility (g/100 g)” value was greater than 100 g/100 g.
